Assay results reported in patent US6201006A, “Aromatic amidine derivatives useful as selective thrombin inhibitors” (C & C Research Laboratories, priority 1996, dated 2001).

Molecular target: T1, human thrombin (Homo sapiens, UniProt P00734)
T1 construct: purchased Sigma T-6759
Test: Inhibitory activity for thrombin (chromogenic substrate hydrolysis, 405 nm)
Type: biochemical
Conditions: for Selectivity (trypsin/thrombin): IC50 for trypsin divided by IC50 for thrombin; for IC50: human thrombin, 20 min, pH 8.0, N-benzoyl-Phe-Val-Arg-p-nitroanilide
Experimental: 20 μl of each compound of the present invention was dissolved in 50% methanol in various concentrations and then added to each well of a microplate, to each of which 160 μl of the reaction medium containing 125 mM NaCl, 50 mM Tris-HCl (pH 8.0) and 2 mM synthetic substrate (N-benzoyl-Phe-Val-Arg-p-nitroanilide, Sigma B-7632) were added. 20 μl of human thrombin solution (5 units/ml, Sigma T-6759, manufactured by Sigma Co.) containing 0.1% bovine serum albumin was added to each well to initiate the enzymatic reaction. After 20 minutes, the hydrolysis of substrate was determined by measuring the absorbance at 405 nm. […] The selectivity index was calculated by dividing the IC50 value for trypsin by the IC50 value for thrombin. The thrombin inhibitory activity and the trypsin inhibitory activity for the compound of the present invention are shown in the following Table 2.

Row | Structure (SMILES) | Selectivity (trypsin/thrombin) | IC50 [nM]
1 | CCOC(=O)CN1CCC[C@@H]1C(=O)N1CCC[C@H]1CCc1cc2ccc(C(=N)N)cc2n1C [Compound 84, ethyl 2-[(R)-2-[[(S)-2-[2-(6-amidino-1-methylindol-2-yl)ethyl]pyrrolidinyl]carbonyl]pyrrolidinyl]acetate] | 87.0 | 51.6
2 | CCn1c(CC[C@H]2C[C@H](C)CN2C(=O)[C@H]2CCCN2CC(=O)O)cc2ccc(C(=N)N)cc21 [Compound 98, 2-[(R)-2-[[(S)-2-[2-(6-amidino-1-ethylindol-2-yl)ethyl]-(S)-4-methylpyrrolidinyl]carbonyl]pyrrolidinyl]acetic acid] | – | 20.3
3 | CCOC(=O)C(CC)N1CCC[C@@H]1C(=O)N1CCC[C@H]1CCc1cc2ccc(C(=N)N)cc2n1CC (stereo partly drawn) [Compound 110, ethyl 2-[(R)-2-[[(S)-2-[2-(6-amidino-1-ethylindol-2-yl)ethyl]pyrrolidinyl]carbonyl]pyrrolidinyl]butanoate] | 38.6 | 37.7
4 | CCOC(=O)C(c1ccccc1)N1CCC[C@@H]1C(=O)N1CCC[C@H]1CCc1cc2ccc(C(=N)N)cc2n1CC (stereo partly drawn) [Compound 112, ethyl-2-[(R)-2-[[(S)-2-[2-(6-amidino-1-ethylindol-2-yl)ethyl]pyrrolidinyl]carbonyl]pyrrolidinyl]-2-phenylacetate] | – | 29.2
5 | CCOC(=O)[C@H](C)NC(=O)CN1CCC[C@@H]1C(=O)N1CCC[C@H]1CCc1cc2ccc(C(=N)N)cc2n1CC [Compound 116, ethyl (s)-2-[2-[(R)-2-[[(S)-2-[2-(6-amidino-1-ethylindol-2-yl)ethyl]pyrrolidinyl]carbonyl]pyrrolidinyl]-acetylamino]propanoate] | 27.4 | 31.7
6 | CCn1c(CC[C@@H]2CCCN2C(=O)[C@H]2CCCN2CCCCCC(=O)O)cc2ccc(C(=N)N)cc21 [Compound 131, 6-[(R)-2-[[(S)-2-[2-(6-amidino-1-ethylindol-2-yl)-ethyl]pyrrolidinyl]carbonyl]pyrrolidinyl]hexanoic acid] | 14.7 | 9.29
7 | CCn1c(CC[C@@H]2CCCN2C(=O)[C@H]2CCCN2C(=O)CNC)cc2ccc(C(=N)N)cc21 [Compound 142, 1-ethyl-2-[2-[(S)-1-[[(R)-1-[2-(methylamino)acetyl]pyrrolidin-2-yl]carbonyl]pyrrolidin-2-yl]ethyl]indole-6-carboxamidine] | – | 33.1
8 | CCOC(=O)C[C@H](N)C(=O)N1CCC[C@@H]1C(=O)N1CCC[C@H]1CCc1cc2ccc(C(=N)N)cc2n1CC [Compound 147, ethyl 4-[(R)-2-[[(S)-2-[2-(6-amidino-1-ethylindol-2-yl)ethyl]pyrrolidinyl]carbonyl]pyrrolidinyl]-(S)-3-amino-4-oxobutanoate] | – | 25.5
9 | CCn1c(CC[C@@H]2CCCN2C(=O)[C@H]2CCCN2C(=O)C(C)CN)cc2ccc(C(=N)N)cc21 (stereo partly drawn) [Compound 156, 1-ethyl-2-[2-[(S)-1-[[(R)-1-(3-amino-2-methylpropanoyl)pyrrolidin-2-yl]carbonyl]pyrrolidin-2-yl]ethyl]indole-6-carboxamidine] | – | 28.6
10 | CCn1c(CC[C@@H]2CCCN2C(=O)[C@H]2CCCN2C(=O)CC(C)N)cc2ccc(C(=N)N)cc21 (stereo partly drawn) [Compound 157, 1-ethyl-2-[2-[(S)-1-[[(R)-1-(3-amino-butanoyl)pyrrolidin-2-yl]carbonyl]pyrrolidin-2-yl]ethyl]indole-6-carboxamidine] | – | 26.9
11 | CCn1c(CC[C@@H]2CCCN2C(=O)[C@H]2CCCN2C(=O)CCNS(C)(=O)=O)cc2ccc(C(=N)N)cc21 [Compound 158, 1-ethyl-2-[2-[(S)-1-[[(R)-1-[3-[(methanesulfonyl)amino]propanoyl]pyrrolidin-2-yl]carbonyl]pyrrolidin-2-yl]ethyl]indole-6-carboxamidine] | – | 5.5
12 | CCn1c(CC[C@@H]2CCCN2C(=O)[C@H]2CCCN2C(=O)C[C@H](NS(C)(=O)=O)C(=O)O)cc2ccc(C(=N)N)cc21 [Compound 163, 4-[(R)-2-[[(S)-2-[2-(6-amidino-1-ethylindol-2-yl)ethyl]pyrrolidinyl]carbonyl]pyrrolidinyl]-(S)-2-[(methanesulfonyl)amino]-4-oxobutanoic acid] | 25.6 | 19.4
13 | CCn1c(CC[C@@H]2CCCN2C(=O)[C@H]2CCCN2C(=O)C2CCCNC2)cc2ccc(C(=N)N)cc21 (stereo partly drawn) [Compound 168, 1-ethyl-2-[2-[(S)-1-[[(R)-1-(3-piperidinylcarbonyl)pyrrolidin-2-yl]carbonyl]pyrrolidin-2-yl]ethyl]indole-6-carboxamidine] | – | 31.6

Now from value to compound:

Row | Selectivity (trypsin/thrombin) | IC50 [nM] | Structure (SMILES)
14 | – | 31.9 | CCOC(=O)C(C)N1CCC[C@@H]1C(=O)N1CCC[C@H]1CCc1cc2ccc(C(=N)N)cc2n1CC (stereo partly drawn) [Compound 109, ethyl-2-[(R)-2-[[(S)-2-[2-(6-amidino-1-ethylindol-2-yl)ethyl]pyrrolidinyl]carbonyl]pyrrolidinyl]propionate]
15 | – | 31.8 | CCn1c(CC[C@@H]2CCCN2C(=O)[C@H]2CCCN2CC(=O)NC2CC2)cc2ccc(C(=N)N)cc21 [Compound 115, 1-ethyl-2-[2-[(S)-1-[[(R)-1-[(N-cyclopropylcarbamoyl)methyl]pyrrolidin-2-yl]carbonyl]pyrrolidin-2-yl]-ethyl]indole-6-carboxamidine]
16 | – | 32.9 | CCn1c(CCC2CCCN2C(=O)C2CCCN2C(CC(=O)O)C(=O)O)cc2ccc(C(=N)N)cc21 [Compound 123, 1-[(R)-2-[[(S)-2-[2-(6-amidino-1-ethyl-indol-2-yl)ethyl]pyrrolidinyl]carbonyl]pyrrolidinyl]ethane-1,2-dicarboxylic acid]
17 | – | 26.2 | CCOC(=O)CCCCN1CCC[C@@H]1C(=O)N1CCC[C@H]1CCc1cc2ccc(C(=N)N)cc2n1CC [Compound 128, ethyl 5-[(R)-2-[[(S)-2-[2-(6-amidino-1-ethylindol-2-yl)ethyl]pyrrolidinyl]carbonyl]pyrrolidinyl]pentanoate]
18 | 10.6 | 13.1 | CCn1c(CC[C@@H]2CCCN2C(=O)[C@H]2CCCN2CCCCC(=O)O)cc2ccc(C(=N)N)cc21 [Compound 129, 5-[(R)-2-[[(S)-2-[2-(6-amidino-1-ethylindol-2-yl)-ethyl]pyrrolidinyl]carbonyl]pyrrolidinyl]pentanoic acid]
19 | – | 36.5 | CCOC(=O)CCCCCN1CCC[C@@H]1C(=O)N1CCC[C@H]1CCc1cc2ccc(C(=N)N)cc2n1CC [Compound 130, ethyl 6-[(R)-2-[[(S)-2-[2-(6-amidino-1-ethylindol-2-yl)-ethyl]pyrrolidinyl]carbonyl]pyrrolidinyl]hexanoate]
20 | – | 25.3 | CCC(N)C(=O)N1CCC[C@@H]1C(=O)N1CCC[C@H]1CCc1cc2ccc(C(=N)N)cc2n1CC (stereo partly drawn) [Compound 144, 1-ethyl-2-[2-[(S)-1-[[(R)-1-(2-aminobutanoyl)pyrrolidin-2-yl]carbonyl]pyrrolidin-2-yl]ethyl]indole-6-carboxamidine]
21 | 20.1 | 26.1 | CCn1c(CC[C@@H]2CCCN2C(=O)[C@H]2CCCN2C(=O)[C@@H](N)C(C)C)cc2ccc(C(=N)N)cc21 [Compound 145, 1-ethyl-2-[2-[(S)-1-[[(R)-1-((S)-2-amino-3-methylbutanoyl)pyrrolidin-2-yl]carbonyl]pyrrolidin-2-yl]-ethyl]indole-6-carboxamidine]
